Data reported in PubChem BioAssay AID330 (DTP/NCI, 2004).
“And” between values parts separate entries of the source, which are not always exact repeats. Identical values can stand only once. Toxic doses and inconclusive results are not listed. Rule for the calls: active = survival T/C of 150% or more; inactive = T/C below 125% in these data.

System: P388 leukemia ip, CD2F1 mice, survival T/C
Experiment: NCI In Vivo Anticancer Drug Screen. Data for tumor model P388 Leukemia (intraperitoneal) in CD2F1 (CDF1) mice
Conditions: endpoint: median survival time, higher = longer survival
Outline: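 Mice carrying the transplanted tumor received test compound or vehicle. Survival was recorded in each group, and the value is the treated-group measurement divided by that of the vehicle-treated control group.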

[1] = dose: 50.0 mg/kg/injection, schedule: Q01DX005 (ip), vehicle: Klucel (hydroxypropylcellulose) (HPC)
[2] = dose: 100.0 mg/kg/injection, schedule: Q01DX005 (ip), vehicle: Klucel (hydroxypropylcellulose) (HPC)
[3] = dose: 200.0 mg/kg/injection, schedule: Q01DX005 (ip), vehicle: Klucel (hydroxypropylcellulose) (HPC)
[4] = dose: 60.0 mg/kg/injection, schedule: Q01DX005 (ip), vehicle: saline with Tween-80
[5] = dose: 50.0 mg/kg/injection, schedule: Q01DX005 (ip), vehicle: saline with Tween-80
[6] = dose: 100.0 mg/kg/injection, schedule: Q01DX005 (ip), vehicle: saline with Tween-80
[7] = dose: 200.0 mg/kg/injection, schedule: Q01DX005 (ip), vehicle: saline with Tween-80
[8] = dose: 120.0 mg/kg/injection, schedule: Q01DX005 (ip), vehicle: saline with Tween-80
[9] = dose: 240.0 mg/kg/injection, schedule: Q01DX005 (ip), vehicle: saline with Tween-80
[10] = dose: 100.0 mg/kg/injection, schedule: Q01DX001 (ip), vehicle: saline with Tween-80
[11] = dose: 12.5 mg/kg/injection, schedule: Q01DX009 (ip), vehicle: saline with Tween-80
[12] = dose: 25.0 mg/kg/injection, schedule: Q01DX009 (ip), vehicle: saline with Tween-80
[13] = dose: 50.0 mg/kg/injection, schedule: Q01DX009 (ip), vehicle: saline with Tween-80
[14] = dose: 100.0 mg/kg/injection, schedule: Q01DX009 (ip), vehicle: saline with Tween-80
[15] = dose: 6.25 mg/kg/injection, schedule: Q01DX005 (ip), vehicle: Klucel (hydroxypropylcellulose) (HPC)
[16] = dose: 12.5 mg/kg/injection, schedule: Q01DX005 (ip), vehicle: Klucel (hydroxypropylcellulose) (HPC)
[17] = dose: 50.0 mg/kg/injection, schedule: Q01DX009 (ip), vehicle: saline
[18] = dose: 12.5 mg/kg/injection, schedule: Q01DX005 (ip), vehicle: saline with Tween-80

Measured: T/C

O=C1OC(c2ccccc2)c2cccnc21 (stereo not given)
inactive: dose: 100.0 mg/kg/injection, schedule: Q04DX002 (ip), vehicle: saline with Tween-80 101 % of control | dose: 200.0 mg/kg/injection, schedule: Q04DX002 (ip), vehicle: saline with Tween-80 92 % of control | dose: 400.0 mg/kg/injection, schedule: Q04DX002 (ip), vehicle: saline with Tween-80 98 % of control

CO[C@@H]1C2=CC=CC=C[C@H]2n2c(=O)n(C)c(=O)n21
inactive: [1] 100 % of control | dose: 75.0 mg/kg/injection, schedule: Q01DX005 (ip), vehicle: other 109 % of control | [2] 98 % of control | dose: 150.0 mg/kg/injection, schedule: Q01DX005 (ip), vehicle: other 115 % of control | [3] 102 % of control | dose: 300.0 mg/kg/injection, schedule: Q01DX005 (ip), vehicle: other 111 % of control

CCOC(=O)CNC(=O)N1COCC1(C)C
inactive: dose: 50.0 mg/kg/injection, schedule: Q01DX009 (ip), vehicle: Klucel (hydroxypropylcellulose) (HPC) 95 % of control | dose: 100.0 mg/kg/injection, schedule: Q01DX009 (ip), vehicle: Klucel (hydroxypropylcellulose) (HPC) 95 % of control | dose: 200.0 mg/kg/injection, schedule: Q01DX009 (ip), vehicle: Klucel (hydroxypropylcellulose) (HPC) 95 % of control

O=S(=O)(CCCCl)SCCCCl
inactive: dose: 7.5 mg/kg/injection, schedule: Q01DX005 (ip), vehicle: saline with Tween-80 104 % of control | dose: 15.0 mg/kg/injection, schedule: Q01DX005 (ip), vehicle: saline with Tween-80 105 % of control | dose: 30.0 mg/kg/injection, schedule: Q01DX005 (ip), vehicle: saline with Tween-80 103 % of control and 105 % of control | [4] 96 % of control

N#Cc1c(O)c2c(c(O)c1C#N)C(=O)c1ccccc1C2=O
inactive: [5] 97 % of control | [6] 95 % of control | [7] 92 % of control

CCOC(=O)C(CCC[n+]1ccc2ccccc2c1)C(=O)OCC
inactive: [1] 96 % of control | [2] 98 % of control | [3] 98 % of control

CC12CCC(=O)C=C1CCC1C2CCC2(C)C(OC(=O)C34C=CC(=O)C3C3C=CC4CC3)CCC12 (stereo not given)
inactive: dose: 25.0 mg/kg/injection, schedule: Q01DX005 (ip), vehicle: distilled water + Tween-80 95 % of control | dose: 50.0 mg/kg/injection, schedule: Q01DX005 (ip), vehicle: distilled water + Tween-80 92 % of control

CCN(CC)CCNC(=O)c1cc(Cl)c(N)cc1OC
inactive: dose: 3.12 mg/kg/injection, schedule: Q01DX005 (ip), vehicle: water 100 % of control and 105 % of control | dose: 6.25 mg/kg/injection, schedule: Q01DX005 (ip), vehicle: water 108 % of control and 95 % of control | dose: 12.5 mg/kg/injection, schedule: Q01DX005 (ip), vehicle: water 104 % of control and 105 % of control | dose: 25.0 mg/kg/injection, schedule: Q01DX005 (ip), vehicle: water 104 % of control and 107 % of control | dose: 50.0 mg/kg/injection, schedule: Q01DX005 (ip), vehicle: water 103 % of control and 111 % of control and 122 % of control | dose: 100.0 mg/kg/injection, schedule: Q01DX005 (ip), vehicle: water 100 % of control and 106 % of control and 117 % of control

O=C(/C=C/c1ccccc1)NC1C=Nc2ccccc2NC1=O (stereo not given)
inactive: [4] 92 % of control | [8] 92 % of control | [9] 99 % of control

COc1cc(OC)c2c(=O)cc(-c3ccccc3)sc2c1
inactive: [10] 100 % of control | dose: 200.0 mg/kg/injection, schedule: Q01DX001 (ip), vehicle: saline with Tween-80 94 % of control | dose: 400.0 mg/kg/injection, schedule: Q01DX001 (ip), vehicle: saline with Tween-80 95 % of control

Nc1ccc2ccc(O)cc2c1
inactive: [11] 100 % of control | [12] 100 % of control | [13] 100 % of control | [14] 98 % of control

Fc1ccc2c(c1)C(Br)c1ccccc1-2 (stereo not given)
inactive: dose: 6.25 mg/kg/injection, schedule: Q01DX009 (ip), vehicle: saline with Tween-80 104 % of control | [11] 100 % of control | [12] 109 % of control

Cc1ccc(S(=O)(=O)NN=C2[C@H]3CC=CC[C@H]3C(=NNS(=O)(=O)c3ccc(C)cc3)[C@@H]3CC=CC[C@H]23)cc1
inactive: [5] 90 % of control | [6] 87 % of control | [7] 103 % of control

Cc1cc2nc3cc(C)c(N)cc3[n+](-c3ccccc3)c2cc1N
inactive: [15] 109 % of control | [16] 116 % of control

Cc1cccc(Cl)c1NC(=O)C(C)N1CCCC1 (stereo not given)
inactive: dose: 12.5 mg/kg/injection, schedule: Q01DX009 (ip), vehicle: saline 100 % of control | dose: 25.0 mg/kg/injection, schedule: Q01DX009 (ip), vehicle: saline 90 % of control | [17] 109 % of control

OCCNCCN1CCN(CCCN2c3ccccc3Sc3ccc(C(F)(F)F)cc32)CC1
inactive: dose: 3.12 mg/kg/injection, schedule: Q04DX003 (ip), vehicle: saline 99 % of control | dose: 6.25 mg/kg/injection, schedule: Q04DX003 (ip), vehicle: saline 99 % of control and 101 % of control and 88 % of control | dose: 12.5 mg/kg/injection, schedule: Q04DX003 (ip), vehicle: saline 101 % of control and 102 % of control and 90 % of control | dose: 25.0 mg/kg/injection, schedule: Q04DX003 (ip), vehicle: saline 104 % of control and 106 % of control and 93 % of control

CC(=O)C[n+]1cccc(C)c1Sc1ccccc1
inactive: [18] 97 % of control | dose: 25.0 mg/kg/injection, schedule: Q01DX005 (ip), vehicle: saline with Tween-80 101 % of control | [5] 108 % of control and 94 % of control

COc1cc(C(Nc2ncccn2)c2cc3c(cc2OC(C)=O)OCO3)cc(OC)c1OC(C)=O (stereo not given)
inactive: [4] 105 % of control | [8] 100 % of control | [9] 99 % of control

Fc1ccc(NC(=S)SCc2ccc(Cl)cc2)c(F)c1
inactive: dose: 50.0 mg/kg/injection, schedule: Q01DX009 (ip), vehicle: suspension in saline 93 % of control | dose: 100.0 mg/kg/injection, schedule: Q01DX009 (ip), vehicle: suspension in saline 100 % of control | dose: 200.0 mg/kg/injection, schedule: Q01DX009 (ip), vehicle: suspension in saline 100 % of control

O=c1ccn(C2CCCCC2)c(=O)[nH]1
inactive: [15] 99 % of control | [16] 95 % of control | dose: 25.0 mg/kg/injection, schedule: Q01DX005 (ip), vehicle: Klucel (hydroxypropylcellulose) (HPC) 91 % of control

Clc1c2ccccc2cc2cccnc12
inactive: [17] 101 % of control | dose: 100.0 mg/kg/injection, schedule: Q01DX009 (ip), vehicle: saline 100 % of control | dose: 200.0 mg/kg/injection, schedule: Q01DX009 (ip), vehicle: saline 102 % of control and 86 % of control

CC1CCC(OC(=O)N(CCCl)N=O)CC1 (stereo not given)
inactive: dose: 3.12 mg/kg/injection, schedule: Q01DX001 (ip), vehicle: saline with Tween-80 100 % of control | dose: 6.25 mg/kg/injection, schedule: Q01DX001 (ip), vehicle: saline with Tween-80 108 % of control | dose: 12.5 mg/kg/injection, schedule: Q01DX001 (ip), vehicle: saline with Tween-80 111 % of control | dose: 25.0 mg/kg/injection, schedule: Q01DX001 (ip), vehicle: saline with Tween-80 118 % of control | dose: 50.0 mg/kg/injection, schedule: Q01DX001 (ip), vehicle: saline with Tween-80 105 % of control | [10] 114 % of control and 86 % of control | dose: 150.0 mg/kg/injection, schedule: Q01DX001 (ip), vehicle: saline with Tween-80 100 % of control

CN(C)N=Nc1ccc(N(C)C)cc1
inactive: dose: 0.39 mg/kg/injection, schedule: Q01DX009 (ip), vehicle: Klucel (hydroxypropylcellulose) (HPC) 121 % of control | dose: 0.78 mg/kg/injection, schedule: Q01DX009 (ip), vehicle: Klucel (hydroxypropylcellulose) (HPC) 113 % of control and 114 % of control | dose: 1.56 mg/kg/injection, schedule: Q01DX009 (ip), vehicle: Klucel (hydroxypropylcellulose) (HPC) 113 % of control and 120 % of control | dose: 3.13 mg/kg/injection, schedule: Q01DX009 (ip), vehicle: Klucel (hydroxypropylcellulose) (HPC) 103 % of control and 118 % of control

CCCCCCCCOC(=O)c1ccc(O)cc1
inactive: [11] 99 % of control | [12] 100 % of control | [13] 99 % of control and 96 % of control | [14] 92 % of control

Clc1cc(Cl)c2c(c1)[nH]c1nc3ccccc3nc12
inactive: dose: 6.25 mg/kg/injection, schedule: Q01DX005 (ip), vehicle: saline with Tween-80 101 % of control | [18] 90 % of control | [5] 96 % of control | [6] 100 % of control | [7] 104 % of control
